Experimental data as given in PMC2833169, “Anti-malarial activity of a non-piperidine library of next-generation quinoline methanols” (Malaria Journal, 2010).
In brackets after ≈: the same amount, converted by molar mass. Read-outs that look alike come from different tables or passages of the source.

What was measured:
CYP450 3A4 = target: T1, CYP450 3A4 (Homo sapiens, UniProt P08684); assay: CYP450 inhibition kit (drug-drug interaction), 3A4; type: biochemical
T1 construct: purchased BD Gentest (Franklin Lakes, NJ)
T1 sequence (P08684 whole entry): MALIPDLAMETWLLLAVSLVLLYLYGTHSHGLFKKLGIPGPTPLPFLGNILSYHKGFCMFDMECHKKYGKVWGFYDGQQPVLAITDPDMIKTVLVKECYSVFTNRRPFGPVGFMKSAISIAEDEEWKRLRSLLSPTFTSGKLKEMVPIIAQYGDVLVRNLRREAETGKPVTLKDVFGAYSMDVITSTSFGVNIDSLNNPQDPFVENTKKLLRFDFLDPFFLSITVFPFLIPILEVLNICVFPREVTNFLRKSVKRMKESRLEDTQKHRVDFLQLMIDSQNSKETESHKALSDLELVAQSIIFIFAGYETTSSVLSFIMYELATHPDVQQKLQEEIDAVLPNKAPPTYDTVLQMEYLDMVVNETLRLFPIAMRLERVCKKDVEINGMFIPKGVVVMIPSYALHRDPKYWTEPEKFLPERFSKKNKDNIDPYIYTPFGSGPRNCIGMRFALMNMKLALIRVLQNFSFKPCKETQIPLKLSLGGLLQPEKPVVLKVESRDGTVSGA
Experimental: (§1) Low IC50s against specific cytochrome P450 isoforms may indicate the potential for a harmful drug interaction to occur in vivo with substrates of that isoform. A lack of metabolic stability in vitro may indicate potential metabolic instability in vivo, and, therefore, a shorter half-life. Drug interaction potential was evaluated in vitro using BD Gentest (Franklin Lakes, NJ) CYP450 inhibition kits as recommended by the manufacturer. Metabolic stability assessments were conducted using in vitro liver microsomes. […] The reaction is started with the addition of 1 U/mL glucose-6-phosphate dehydrogenase G6PD. The mixture is incubated on a shaking platform at 37°C, and aliquots are taken and quenched with the addition of an equal volume of cold acetonitrile at 0, 10, 20, 30, and 60 min. Samples are centrifuged at 3700 rpm for […] at 20°C to remove debris. Sample quantification is carried out by LC/MS, and metabolic half-life is calculated by log plots of the total ion chromatograph area remaining.

CYP450 2D6 = target: T2, CYP450 2D6 (Homo sapiens, UniProt P10635); assay: CYP450 inhibition kit (drug-drug interaction), 2D6; type: biochemical
T2 construct: purchased BD Gentest (Franklin Lakes, NJ)
T2 sequence (P10635 whole entry): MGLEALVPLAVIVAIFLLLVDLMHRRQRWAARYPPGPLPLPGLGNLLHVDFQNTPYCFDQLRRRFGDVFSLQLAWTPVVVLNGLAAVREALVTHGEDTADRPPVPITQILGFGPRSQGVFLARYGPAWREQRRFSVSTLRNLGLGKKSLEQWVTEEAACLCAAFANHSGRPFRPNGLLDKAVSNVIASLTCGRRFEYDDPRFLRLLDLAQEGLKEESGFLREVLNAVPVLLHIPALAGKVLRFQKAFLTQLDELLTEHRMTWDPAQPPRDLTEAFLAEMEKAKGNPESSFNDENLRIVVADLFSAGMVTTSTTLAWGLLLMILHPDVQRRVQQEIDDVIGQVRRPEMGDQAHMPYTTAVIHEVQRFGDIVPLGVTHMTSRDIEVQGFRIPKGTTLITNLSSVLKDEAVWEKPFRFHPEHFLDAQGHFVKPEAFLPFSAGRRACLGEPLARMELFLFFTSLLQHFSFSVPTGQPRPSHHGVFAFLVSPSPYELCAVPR
Experimental: as §1

[1] = system: P. falciparum strain TM90C2A; assay: labeled hypoxanthine susceptibility assay, P. falciparum TM90C2A; type: cell-based, Plasmodium falciparum
Experimental: (§2) The in vitro activities of quinoline methanols against P. falciparum strains W2, D6, TM91C235, and TM90C2A were evaluated using the traditional labeled hypoxanthine assay of Desjardins et al as modified by Milhous et al. These four P. falciparum strains were selected since they have various levels of resistance to conventional anti-malarials.

[2] = system: P. falciparum strain TM91C235; assay: labeled hypoxanthine susceptibility assay, P. falciparum TM91C235; type: cell-based, Plasmodium falciparum; conditions: Plasmodium falciparum
Experimental: as §2

CYP450 1A2 = target: T3, CYP450 1A2 (Homo sapiens, UniProt P05177); assay: CYP450 inhibition kit (drug-drug interaction), 1A2; type: biochemical
T3 construct: purchased BD Gentest (Franklin Lakes, NJ)
T3 sequence (P05177 1-516): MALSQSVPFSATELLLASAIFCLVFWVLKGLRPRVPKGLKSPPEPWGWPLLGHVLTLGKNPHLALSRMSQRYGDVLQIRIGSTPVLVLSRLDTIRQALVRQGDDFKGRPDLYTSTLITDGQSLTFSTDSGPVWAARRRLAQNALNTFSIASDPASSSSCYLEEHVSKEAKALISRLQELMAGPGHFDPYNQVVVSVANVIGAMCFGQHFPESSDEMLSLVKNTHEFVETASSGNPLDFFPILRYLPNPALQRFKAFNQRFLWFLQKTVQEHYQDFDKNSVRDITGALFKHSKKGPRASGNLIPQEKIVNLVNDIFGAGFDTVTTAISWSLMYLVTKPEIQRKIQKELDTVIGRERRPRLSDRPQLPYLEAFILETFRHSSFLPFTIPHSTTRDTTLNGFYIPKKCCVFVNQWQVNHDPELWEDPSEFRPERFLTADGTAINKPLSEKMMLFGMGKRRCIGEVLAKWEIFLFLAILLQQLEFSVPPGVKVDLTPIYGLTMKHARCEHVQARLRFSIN
Experimental: as §1

CYP450 2C19 = target: T4, CYP450 2C19 (Homo sapiens, UniProt P33261); assay: CYP450 inhibition kit (drug-drug interaction), 2C19; type: biochemical
T4 construct: purchased BD Gentest (Franklin Lakes, NJ)
T4 sequence (P33261 whole entry): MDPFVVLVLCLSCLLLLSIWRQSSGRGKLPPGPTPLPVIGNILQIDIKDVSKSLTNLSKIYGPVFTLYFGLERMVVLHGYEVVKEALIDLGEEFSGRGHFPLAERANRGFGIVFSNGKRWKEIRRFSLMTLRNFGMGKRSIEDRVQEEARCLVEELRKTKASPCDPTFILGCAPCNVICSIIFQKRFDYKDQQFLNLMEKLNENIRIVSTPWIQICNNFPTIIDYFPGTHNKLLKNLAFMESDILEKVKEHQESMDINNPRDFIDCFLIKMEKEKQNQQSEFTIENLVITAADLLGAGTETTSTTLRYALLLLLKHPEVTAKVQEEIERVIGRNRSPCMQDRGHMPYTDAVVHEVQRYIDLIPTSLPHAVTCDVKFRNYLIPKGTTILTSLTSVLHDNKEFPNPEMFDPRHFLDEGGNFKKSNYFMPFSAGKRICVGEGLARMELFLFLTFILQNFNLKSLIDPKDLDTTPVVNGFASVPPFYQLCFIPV
Experimental: as §1

CYP450 2C9 = target: T5, CYP450 2C9 (Homo sapiens, UniProt P11712); assay: CYP450 inhibition kit (drug-drug interaction), 2C9; type: biochemical
T5 construct: purchased BD Gentest (Franklin Lakes, NJ)
T5 sequence (P11712 whole entry): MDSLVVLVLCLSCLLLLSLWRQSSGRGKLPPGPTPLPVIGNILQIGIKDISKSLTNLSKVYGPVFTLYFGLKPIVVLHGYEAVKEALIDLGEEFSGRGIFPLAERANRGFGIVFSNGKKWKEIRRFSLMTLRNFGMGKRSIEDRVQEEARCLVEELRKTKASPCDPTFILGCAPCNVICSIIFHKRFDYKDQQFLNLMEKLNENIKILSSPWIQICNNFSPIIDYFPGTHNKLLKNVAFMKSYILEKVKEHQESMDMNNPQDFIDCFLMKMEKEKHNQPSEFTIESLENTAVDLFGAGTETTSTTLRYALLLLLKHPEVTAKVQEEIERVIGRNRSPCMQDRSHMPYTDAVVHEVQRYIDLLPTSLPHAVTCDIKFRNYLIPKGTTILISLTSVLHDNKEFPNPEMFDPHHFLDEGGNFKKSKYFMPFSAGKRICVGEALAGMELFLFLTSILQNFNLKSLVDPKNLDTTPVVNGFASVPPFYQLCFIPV
Experimental: as §1

[3] = metabolic stability in mouse liver microsomes; type: in vitro ADME; conditions: for half-life at 1 μM: pH 7.4, mouse liver microsomes, read-out: Half-life in mouse micro
Experimental: as §1, with “Interesting compounds were also submitted for drug-drug interaction and metabolic stability assays. Low” for “Low”

[4] = system: rodent macrophage (RAW) cell line; assay: cells; conditions: Mus musculus, Macrophage, read-out: Macrophage IC50
Experimental: (§3) General cytotoxicity was assessed by first determining LC50 's against a rodent macrophage (RAW) cell line using the 3-(4,5-dimethylthiazole-2-yl)-2,5-diphenyltetrazolium bromide (MTT) assay as described in one of our earlier studies. This screen was conducted to identify compounds that may require de-selection due to generalized toxicity. […] In vitro neurocytotoxicity was assessed by determining LC50s against primary mouse neurons using the MTT assay as described previously. Inhibition of the A2A and A1 receptors was determined at 200 nM in duplicate by Caliper Biosciences (Hanover, Maryland).

P. falciparum strain D6 = assay: labeled hypoxanthine susceptibility assay, P. falciparum D6; type: cell-based, Plasmodium falciparum; conditions: Plasmodium falciparum
Experimental: as §2

in vitro [5] = conditions: mouse
Experimental: as §3

P. falciparum strain W2 = assay: labeled hypoxanthine susceptibility assay, P. falciparum W2; type: cell-based, Plasmodium falciparum; conditions: Plasmodium falciparum
Experimental: as §2

in vitro [6] = conditions: mouse; remark: listed apart in the source
Experimental: as §3

in vitro [7] = conditions: dog, MDCK-MDR1, pH 7.4
Experimental: (§4) For this reason, the apparent permeability of selected compounds across MDR1-transfected MDCK cell monolayers was determined. This assay is an in vitro surrogate of the blood-brain barrier.
(§5) Permeability was determined by Absorption Systems (Exton, PA). MDR1-MDCK cell monolayers were grown to confluence on collagen-coated, microporous, polycarbonate membranes in 12-well Costar Transwell plates. […] The permeability assay buffer was Hanks Balanced Salt Solution containing 10 mM HEPES and 15 mM glucose at a pH of 7.4. A known p-glycoprotein inhibitor cyclosporin A (CSA) was also added to the assay buffer at 10 μM. Bovine serum albumin (1%) was added to the receiver well. The dosing solution concentrations of the test compounds were 5.0 μM in the assay buffer. All cell monolayers were first pre-incubated for 30 minutes with assay buffer. After 30 minutes, the buffer was removed, replaced with fresh buffer, and time was recorded as 0. […] Cell monolayers were dosed on the apical side (A-to-B) or basolateral side (B-to-A) and incubated at 37°C with 5% CO2 in a humidified incubator. After 2 hours, aliquots were taken from the receiver chambers. Samples were taken from the donor chamber at 0 and 2 hours. Each determination was performed in duplicate. The lucifer yellow flux was also measured for each monolayer to ensure no damage was inflicted to the cell monolayers during the flux period. All samples were assayed by LC/MS/MS using electrospray ionization.
(§6) Apparent permeability in the apical (A-B direction), PappA-B, and percent recovery are reported. Apparent permeability is a measure of the rate of transport across the cell monolayer. Percent recovery refers to the amount of compound recoverable at the end of the assay. Low recovery may indicate non-specific binding to assay plates, instability or accumulation in the cell pellet.
(§7) The apparent permeability, Papp, and percent recovery were calculated as follows:
(§8) Papp = (dCr/dt) × Vr/(A × C0) (1)
(§9) Percent Recovery = 100 × ((Vr × Cr^final) + (Vd × Cd^final))/(Vd × […]) (2)

[8] = system: MDR1-transfected MDCK cell monolayers; assay: in vitro; conditions: dog, MDCK-MDR1, 2 h, 5 μM, pH 7.4
Experimental: as §4, §5, §6, §7, §8, §9

[9] = Plasmodium falciparum, TM90C2A, read-out: IC90 Pf C2A
[10] = Plasmodium falciparum, TM90C2A, read-out: IC90 PfC2A
[11] = Plasmodium falciparum, TM90C2A, read-out: PF C2A IC90
[12] = Plasmodium falciparum, TM90C2A, read-out: Pf C2A IC90 nM values calculated using MW in Column C
[13] = D6, read-out: IC90 Pf D6, P. falciparum D6, mefloquine: historical mean +/- SD (n)
[14] = D6, read-out: PF D6 IC90, P. falciparum D6

| Compound | IC50 (CYP450 3A4) | IC50 (CYP450 2D6) | IC90 [1, 9] | IC90 [1, 10] | IC90 [1, 11] | IC90 [1, 12] | CSI (C2A/W2) ([1]; ratio of IC90 C2A to IC90 W2) | IC90 ([2]; read-out: IC90 Pf C235) | IC90 ([2]; read-out: PF C235 IC90) | IC50 (CYP450 1A2) | IC50 (CYP450 2C19) | IC50 (CYP450 2C9) | half-life at 1 μM [3] | IC50 [4] | IC90 (P. falciparum strain D6; [13]) | IC90 (P. falciparum strain D6; [14]) | CC50 (in vitro [5]) | IC90 (P. falciparum strain W2; W2, read-out: IC90 Pf W2) | IC90 (P. falciparum strain W2; W2, read-out: PF W2 IC90) | other results |
| --- | --- | --- | --- | --- | --- | --- | --- | --- | --- | --- | --- | --- | --- | --- | --- | --- | --- | --- | --- | --- |
| OC(CNC1CCC1)c1cc(C(F)(F)F)nc2c(C(F)(F)F)cccc12 (centres unmarked) [WR308266] | 5.7 µM | 1400 nM | 0.052 µg/mL | 137 nM | 0.0517 µg/mL | 137 nM | 8.5 | 0.024 µg/mL (≈ 0.0634 µM) | 0.0243 µg/mL (≈ 0.0643 µM) | 2400 nM | 7.6 µM | 12 µM | 22 min | 13.1 µM | 0.025 µg/mL (≈ 0.0661 µM) | 0.0245 µg/mL (≈ 0.0647 µM) | 59 µM | 6.1 ng/mL (≈ 0.0161 µM) | 6.09 ng/mL (≈ 0.0161 µM) |  |
| OC(CNCC1CCCN1)c1cc(C(F)(F)F)nc2c(C(F)(F)F)cccc12 (centres unmarked) [WR308621] |  |  | 0.198 µg/mL |  |  |  |  | 0.1 µg/mL (≈ 0.245 µM) |  |  |  |  |  |  | 0.092 µg/mL (≈ 0.226 µM) |  |  | 46 ng/mL (≈ 0.113 µM) |  | HL in Microsomes ([3]; Figure 3, species of microsomes not given): > 60 min; CC50 (in vitro [6]): 20.3 µg/mL (≈ 49.8 µM); Papp A→B at 2 h, 5 μM (in vitro [7]): < 3.3 ×10⁻⁶ cm/s; % recovery (MDCK-MDR1 permeability assay) [8]: 28% |
| C=CCNCC(O)c1cc(C(F)(F)F)nc2c(C(F)(F)F)cccc12 (centres unmarked) [WR308255] | 18 µM | 2900 nM | 0.037 µg/mL | 101 nM | 0.0368 µg/mL | 101 nM | 9.8 | 0.019 µg/mL (≈ 0.0522 µM) | 0.0187 µg/mL (≈ 0.0513 µM) | 1500 nM | 25 µM | 25 µM | 25 min | 58.4 µM | 0.015 µg/mL (≈ 0.0412 µM) | 0.0145 µg/mL (≈ 0.0398 µM) | > 120 µM | 3.8 ng/mL (≈ 0.0104 µM) | 3.75 ng/mL (≈ 0.0103 µM) |  |
| CC(C)CC(C)NCC(O)c1cc(C(F)(F)F)nc2c(C(F)(F)F)cccc12 (centres unmarked) [WR308413] | > 40 µM | 1000 nM | 0.0075 µg/mL |  | 0.00748 µg/mL | 18 nM | 7.5 | 0.015 µg/mL (≈ 0.0367 µM) | 0.0147 µg/mL (≈ 0.036 µM) | 26000 nM | 5.8 µM | 19 µM | 19 min | 8.5 µM | 0.012 µg/mL (≈ 0.0294 µM) | 0.0116 µg/mL (≈ 0.0284 µM) | > 120 µM | 1.1 ng/mL (≈ 0.00269 µM) | 1 ng/mL (≈ 0.00245 µM) | IC90 ([1]; Plasmodium falciparum, TM90C2A; read-out: IC90 PfC2A): 171 nM |
